Results from US5389627A, “Cephem compounds” (priority 1993, dated 1995).
Converted amounts (≈) assume the structure as drawn.

Assays:
Test in all cases: In vitro antibacterial activity, minimum inhibitory concentration
Type in all cases: cell-based
E.cloacae C4008 = details: Enterobacter cloacae; E.cloacae C4008; read-out: Minimum Inhibitory Concentration (MIC)
Source text: (§1) As reference compounds, Cefotaxime (CTX), Ceftazidime (CAZ) and Cefpirome (CPR) were employed.

E.cloacae C4009 = details: Enterobacter cloacae; E.cloacae C4009; read-out: Minimum Inhibitory Concentration (MIC)
Source text: as §1

E.coli ATCC10536 = details: Escherichia coli; E.coli ATCC10536; read-out: Minimum Inhibitory Concentration (MIC)
Source text: as §1

E.coli ATCC25922 = details: Escherichia coli; E.coli ATCC25922; read-out: Minimum Inhibitory Concentration (MIC)
Source text: as §1

E.coli C4002 = details: Escherichia coli; E.coli C4002; read-out: Minimum Inhibitory Concentration (MIC)
Source text: as §1

K.oxytoca C4022 = details: Klebsiella oxytoca; K.oxytoca C4022; read-out: Minimum Inhibitory Concentration (MIC)
Source text: as §1

K.pneumoniae ATCC10031 = details: Klebsiella pneumoniae; K.pneumoniae ATCC10031; read-out: Minimum Inhibitory Concentration (MIC)
Source text: as §1

K.pneumoniae C1040 = details: Klebsiella pneumoniae; K.pneumoniae C1040; read-out: Minimum Inhibitory Concentration (MIC)
Source text: as §1

MRSA C2208 = details: Staphylococcus aureus; MRSA C2208; read-out: Minimum Inhibitory Concentration (MIC)
Source text: as §1

P.aeruginosa ATCC10145 = details: Pseudomonas aeruginosa; P.aeruginosa ATCC10145; read-out: Minimum Inhibitory Concentration (MIC)
Source text: as §1

P.aeruginosa ATCC27853 = details: Pseudomonas aeruginosa; P.aeruginosa ATCC27853; read-out: Minimum Inhibitory Concentration (MIC)
Source text: as §1

P.aeruginosa C2027 = details: Pseudomonas aeruginosa; P.aeruginosa C2027; read-out: Minimum Inhibitory Concentration (MIC)
Source text: as §1

P.aeruginosa C4070 = details: Pseudomonas aeruginosa; P.aeruginosa C4070; read-out: Minimum Inhibitory Concentration (MIC)
Source text: as §1

P.mirabilis ATCC25933 = details: Proteus mirabilis; P.mirabilis ATCC25933; read-out: Minimum Inhibitory Concentration (MIC)
Source text: as §1

P.rettgeri ATCC9919 = details: Providencia rettgeri; P.rettgeri ATCC9919; read-out: Minimum Inhibitory Concentration (MIC)
Source text: as §1

S.Faecalis ATCC29212 = details: Enterococcus faecalis
Source text: as §1

S.aureus ATCC29213 = details: Staphylococcus aureus; S.aureus ATCC29213; read-out: Minimum Inhibitory Concentration (MIC)
Source text: as §1

S.aureus C4036 = details: Staphylococcus aureus; S.aureus C4036; read-out: Minimum Inhibitory Concentration (MIC)
Source text: as §1

S.aureus Smith = details: Staphylococcus aureus; S.aureus Smith; read-out: Minimum Inhibitory Concentration (MIC)
Source text: as §1

S.epidermidis ATCC12228 = details: Staphylococcus epidermidis; S.epidermidis ATCC12228; read-out: Minimum Inhibitory Concentration (MIC)
Source text: as §1

S.marcescens ATCC27117 = details: Serratia marcescens; S.marcescens ATCC27117; read-out: Minimum Inhibitory Concentration (MIC)
Source text: as §1

S.marcescens C1052 = details: Serratia marcescens; S.marcescens C1052; read-out: Minimum Inhibitory Concentration (MIC)
Source text: as §1

S.pyogenes ATCC 8668 = details: Streptococcus pyogenes, ATCC8668; S.pyogenes ATCC 8668; read-out: Minimum Inhibitory Concentration (MIC)
Source text: as §1

S.pyogenes C4003 = details: Streptococcus pyogenes; S.pyogenes C4003; read-out: Minimum Inhibitory Concentration (MIC)
Source text: as §1

S.typhimurium C4045 = details: Salmonella enterica; S.typhimurium C4045; read-out: Minimum Inhibitory Concentration (MIC)
Source text: as §1

| Compound | MIC (E.cloacae C4008) | MIC (E.cloacae C4009) | MIC (E.coli ATCC10536) | MIC (E.coli ATCC25922) | MIC (E.coli C4002) | MIC (K.oxytoca C4022) | MIC (K.pneumoniae ATCC10031) | MIC (K.pneumoniae C1040) | MIC (MRSA C2208) | MIC (P.aeruginosa ATCC10145) | MIC (P.aeruginosa ATCC27853) | MIC (P.aeruginosa C2027) | MIC (P.aeruginosa C4070) | MIC (P.mirabilis ATCC25933) | MIC (P.rettgeri ATCC9919) | MIC (S.Faecalis ATCC29212) | MIC (S.aureus ATCC29213) | MIC (S.aureus C4036) | MIC (S.aureus Smith) | MIC (S.epidermidis ATCC12228) | further results |
| --- | --- | --- | --- | --- | --- | --- | --- | --- | --- | --- | --- | --- | --- | --- | --- | --- | --- | --- | --- | --- | --- |
| CO/N=C(\C(=O)N[C@@H]1C(=O)N2C(C(=O)O)=C(COC(C)=O)CS[C@H]12)c1csc(N)n1 [CTX, Cefotaxime, reference compound] | 0.025 µg/mL (≈ 0.0549 µM) | 0.1 µg/mL (≈ 0.22 µM) | 0.025 µg/mL (≈ 0.0549 µM) | 0.1 µg/mL (≈ 0.22 µM) | 0.05 µg/mL (≈ 0.11 µM) | 0.78 µg/mL (≈ 1.71 µM) | 0.002 µg/mL (≈ 0.00439 µM) | 0.025 µg/mL (≈ 0.0549 µM) | > 100 µg/mL | 25 µg/mL (≈ 54.9 µM) | 25 µg/mL (≈ 54.9 µM) | 3.13 µg/mL (≈ 6.87 µM) | 50 µg/mL (≈ 110 µM) | 0.025 µg/mL (≈ 0.0549 µM) | 0.004 µg/mL (≈ 0.00878 µM) | > 100 µg/mL | 1.56 µg/mL (≈ 3.43 µM) | 1.56 µg/mL (≈ 3.43 µM) | 1.56 µg/mL (≈ 3.43 µM) | 0.78 µg/mL (≈ 1.71 µM) | MIC (S.marcescens ATCC27117): 0.1 µg/mL (≈ 0.22 µM); MIC (S.marcescens C1052): 0.2 µg/mL (≈ 0.439 µM); MIC (S.pyogenes ATCC 8668): 4 ng/mL (≈ 0.00878 µM); MIC (S.pyogenes C4003): 4 ng/mL (≈ 0.00878 µM); MIC (S.typhimurium C4045): 0.05 µg/mL (≈ 0.11 µM) |
| CO/N=C(\C(=O)N[C@@H]1C(=O)N2C(C(=O)[O-])=C(C[n+]3ccc4c(c3)NC(=C[N+](=O)[O-])N4)CS[C@H]12)c1csc(N)n1 [Ex. 1] | 0.05 µg/mL (≈ 0.0872 µM) | 0.2 µg/mL (≈ 0.349 µM) | 0.05 µg/mL (≈ 0.0872 µM) | 0.1 µg/mL (≈ 0.174 µM) | 0.1 µg/mL (≈ 0.174 µM) | 6.25 µg/mL (≈ 10.9 µM) | 0.025 µg/mL (≈ 0.0436 µM) | 0.025 µg/mL (≈ 0.0436 µM) | > 100 µg/mL | 50 µg/mL (≈ 87.2 µM) | 50 µg/mL (≈ 87.2 µM) | 6.25 µg/mL (≈ 10.9 µM) | > 100 µg/mL | 0.1 µg/mL (≈ 0.174 µM) | 0.013 µg/mL (≈ 0.0227 µM) | > 100 µg/mL | 1.56 µg/mL (≈ 2.72 µM) | 1.56 µg/mL (≈ 2.72 µM) | 0.78 µg/mL (≈ 1.36 µM) | 0.78 µg/mL (≈ 1.36 µM) | MIC (S.marcescens ATCC27117): 0.1 µg/mL (≈ 0.174 µM); MIC (S.marcescens C1052): 0.2 µg/mL (≈ 0.349 µM); MIC (S.pyogenes ATCC 8668): 7 ng/mL (≈ 0.0122 µM); MIC (S.pyogenes C4003): 7 ng/mL (≈ 0.0122 µM); MIC (S.typhimurium C4045): 0.1 µg/mL (≈ 0.174 µM) |
| CO/N=C(\C(=O)N[C@@H]1C(=O)N2C(C(=O)[O-])=C(C[n+]3ccc4c(c3)NC(=C[N+](=O)[O-])N4)CS[C@H]12)c1nsc(N)n1 [Ex. 2, 7-β-[(Z)-2-(5-Amino-1,2,4-thiadiazol-3-yl)-2-methoxyiminoacetamido]-3-[2-(1H,3H)-nitromethylen-yl-imidazo[4,5-c]-pyridiniummethyl]-3-cephem-4-carboxylate] | 0.05 µg/mL (≈ 0.087 µM) | 0.2 µg/mL (≈ 0.348 µM) | 0.05 µg/mL (≈ 0.087 µM) | 0.1 µg/mL (≈ 0.174 µM) | 0.1 µg/mL (≈ 0.174 µM) | 12.5 µg/mL (≈ 21.8 µM) | 0.05 µg/mL (≈ 0.087 µM) | 0.05 µg/mL (≈ 0.087 µM) | > 100 µg/mL | 50 µg/mL (≈ 87 µM) | > 100 µg/mL | 6.25 µg/mL (≈ 10.9 µM) | > 100 µg/mL | 0.1 µg/mL (≈ 0.174 µM) | 0.025 µg/mL (≈ 0.0435 µM) | > 100 µg/mL | 1.56 µg/mL (≈ 2.72 µM) | 3.13 µg/mL (≈ 5.45 µM) | 3.13 µg/mL (≈ 5.45 µM) | 1.56 µg/mL (≈ 2.72 µM) | MIC (S.marcescens ATCC27117): 0.2 µg/mL (≈ 0.348 µM); MIC (S.marcescens C1052): 0.2 µg/mL (≈ 0.348 µM); MIC (S.pyogenes ATCC 8668): 13 ng/mL (≈ 0.0226 µM); MIC (S.pyogenes C4003): 7 ng/mL (≈ 0.0122 µM); MIC (S.typhimurium C4045): 0.2 µg/mL (≈ 0.348 µM) |
